Measured values as given in patent US6133313A, “Insecticidal avocadofurans and triolein” (The Regents of the University of California, priority 1998, dated 2000).
“Also recorded” adds a separate entry of the source.

Experiments:
Bombyx mori L. larvae = conditions: 4th instar, within 2 days; cited from earlier work
[1] = system: Colletotrichum gloeosporioides; conditions: in words; cited from earlier work
[2] = in words; cited from earlier work
S. exigua larvae [3] = assay: growth inhibition and mortality of synthetic avocadofurans and triolein in diet bioassay; assay type: in vivo, Spodoptera exigua; conditions: for 7-d Instar / 7-d Larval Weight: mean ± SE
Description: S. exigua larvae were used in all experiments. Larvae were reared on artificial diet modified from U.S.D.A. Agric. Res. Serv., Prod. Res. Rep., 1208:1 (1969), and maintained at 28+2° C., 14:10; light:dark (L:D) photoperiod.
The colony was collected from Orange Co., Calif. and had new genetic material added within 12 months prior to the study. The age of the cohorts tested was standardized by using neonates within 12 hours of eclosion. All bioassays were maintained at 28+2° C. 75% relative humidity (RH), and at 14:10 (L:D) photoperiod with fluorescent lighting.
The insecticidal activity of the fractions was tested with artificial diet bioassays. Treated diets were prepared by transferring 750 μl of acetone solutions of each fraction (equivalent to 300 mg crude idioblast cell oil) into 50-ml polypropylene centrifuge tubes (Fisher, Pittsburgh Pa.), evaporating the acetone, adding 2 ml of 0.1% Tween-80 solution (Fisher), homogenizing with an ultrasonic homogenizer (Co le-Parmer, Chicago Ill.), and adding prepared diet to produce a final weight of 15 g containing the equivalent of 2% idioblast oil. The mixture was vortexed for 3 mm.
Control diet was prepared by mixing 2 ml of Tween solution and 13 g of artificial diet to produce a final weight of 15 g. Control and treated diets were poured into 24-well (15.9 mm diameter and 15.9 mm depth) bioassay trays (C-D International Inc., Pitman N.J.). One neonate was added per well, and trays were placed in an incubator under the previously described conditions. Twenty-four neonates were tested for each fraction and control. Mortality and larval weights were recorded after 7 days.
The effect of the synthetically produced avocado furan compounds (>95% purity) and commercially available triolein (Sigma, St. Louis, Mo.) were tested on larval growth and mortality of S exigua. Treated and control diet were prepared as previously described.
Six different compound concentrations, chosen on the basis of studies with the oil fractions, were evaluated for both 2-(pentadecyl)furan and 2-(heptadecyl)furan: 0 (control), 600, 750, 900, 1050, and 1200 μg/g. Also, six concentrations of triolein (subfraction 1-1-12) were tested: 0 (control), 7000, 8000, 9000, 10000, and 11000 μg/g.
Twenty-four neonates were used per treatment. Bioassays were conducted as described in Example 4, and replicated 4 times for each concentration (i.e., a total of 96 larvae were tested for each concentration). Larval weight, instar, and mortality were recorded after 7 days […].
(§1) EC (effective concentration) values were calculated by subtracting the mean larval weight for each treatment from the mean weight of the controls, and dividing by the mean weight of the controls. LC (lethal concentration) values were obtained using probit analysis as described in Probit Analysis (1971) Cambridge University Press, Cambridge, UK. GI (growth index) and RGI (relative growth index) values were calculated as described in J. Chem. Ecol., 19:1109 (1993), but using an imax of 3 (the stage attained by most control larvae after 7 d). Statistical comparisons were conducted using SuperAnova Abacus Concept Inc., Berkeley, Calif. (1989).

S. exigua larvae [4] = assay: as above; assay type: in vivo, Spodoptera exigua; conditions: 3,500 μg/g
S. exigua larvae [5] = assay: toxicity of furan analogs of variable side chain length in diet assay; assay type: in vivo, Spodoptera exigua; conditions: 5 μmoles g^-1 diet
Description: To determine the toxicity of avocadofurans and their furan analogs, five saturated furans of variable side chain lengths, namely 2-(tetradecyl)furan compound (20), 2-(pentadecyl)furan (1), 2-(hexadecyl)furan compound (21), 2-(heptadecyl)furan (4), and 2-(octadecyl)furan compound (22) were tested for their activity against S. exigua in diet assay. Diets for treatments were prepared at a concentration known to be insecticidal against S. exigua early instar of 5 μmoles g^-1 diet. To compare toxicity among furans, concentration in μmoles g^-1 diet were adjusted according to the molecular weights of individual furans.
Five saturated furans of variable side chain lengths: 2-(tetradecyl)furan (20), 2-(pentadecyl)furan (1), 2-(hexadecyl)furan (21), 2-(heptadecyl)furan (4), and 2-(octadecyl)furan (22) were tested for activity against S. exigua in diet bioassays. Treated diets were prepared at a concentration known to be insecticidal against S. exigua early instars (5 μmoles g^-1 diet). To compare toxicity among furans, concentrations in μmoles g^-1 of diet were used to compensate for their different molecular weights.
Each furan compound was transferred into a 50-ml polypropylene centrifuge tube (Fisher, Pittsburgh Pa.), added 2 ml of 0.1% Tween-80 solution (Fisher), homogenized with an ultrasonic homogenizer (Cole-Parmer, Chicago, Ill.), and artificial diet was added to produce a final weight of 15 g. The mixture was vortexed for 3 mm. Control diet was prepared by mixing 2 ml of Tween solution with 13 g of artificial diet to produce a final weight of 15 g. Control and treated diets were poured into 16-well bioassay trays (C-D International Inc., Pitman N.J.). One neonate was added per well. Trays were placed in an incubator set for conditions described previously. Twenty-four neonates were tested for each treatment. Each treatment was replicated four times (total of 96 larvae/treatment). Larval mortality and weight were recorded after 9 days.

Bacillus subtilis = conditions: in words; cited from earlier work
Staphylococcus aureus = conditions: in words; cited from earlier work
S. exigua = assay: synergistic/joint toxicity of avocadofuran and triolein combinations; assay type: in vivo, Spodoptera exigua
From the text: The treatments were as follows: Control, 2-(pentadecyl)furan, 2-(heptadecyl)furan, triolein, individually, and 2-(pentadecyl)furan combined with 2-(heptadecyl)furan and triolein, 2-(pentadecyl)furan combined with triolein, and 2-(heptadecyl)furan combined with triolein. Because the combined LC25 s for both avocadofurans exceed their LC50 values, a concentration for each was adjusted so that when added it would approximate the value of the avocadofurans LC50 (see Table 2). These concentrations were used whenever both avocadofurans were combined in the same treatment. Treatments were replicated four times, with 15 larvae per replicate to a total of 60 larvae/treatment.
Joint effects were determined by testing all combinations of LC25 s (estimated from probit lines shown in Table 1) of the three compounds for toxicity to S. exigua. The treatments were: control, 2-(pentadecyl)furan, 2-(heptadecyl)furan, triolein, 2-(pentadecyl)furan+triolein, 2-(heptadecyl)furan+triolein, and 2-(pentadecyl)furan+2-(heptadecyl)furan+triolein. Because the combined LC25 s for both avocadofurans exceeded their LC50 values (due to a steep slope of their LC lines), a concentration for each was used so that when added together it would approximate the value of the avocadofurans LC50 (Table 1). These concentrations were used whenever both avocadofurans were combined in the same treatment.
Treatments were replicated four times, with 15 larvae per replicate (total of 60 larvae/treatment). Dietary treatment preparations and bioassay procedures were conducted as described in Example 4. For each diet treatment, 9-d larval instar and weight, pupal weights, times to pupation, and larval mortality were recorded.

neonate S. exigua = assay: individual toxicity of avocadofurans and triolein in artificial diet; assay type: in vivo, Spodoptera exigua; conditions: for LC50 (95% FL): in diet
Description: In this study, individual activity of avocadofurans was investigated quantitatively. For this purpose, eight concentrations of the avocadofurans (1) and (4) and triolein (8) were tested. Results are seen in FIG. 6.
Following pilot studies, eight concentrations of each were tested: 0, 0.5, 1, 1.5, 2, 2.5, 3, and 3.5 μmoles g^~1 diet. Also, five concentrations of triolein were tested: 0; 1,000; 2,000; 3,000; and 4,000 μg g^~1 diet. Because triolein was not compared to a structurally similar compound, a more standard dietary formulation of μg g-^1 was used rather than ^~ moles g^-1 in all triolein-treated bioassays.
Treated and control diet were prepared as described above. For each concentration the compounds were dissolved in 10 ml of Tween solution and mixed using an ultrasonic homogenizer. Untreated diet was added to make a total of 100 g and then vortexed for 3 mm. Control diet was prepared by mixing 10 ml of the Tween solution with 90 g of artificial diet to produce a final weight of 100 g. Control and treated diets were poured into 30 ml plastic cups. One neonate was placed in each cup and cups were held in an incubator. Fifteen larvae were tested at each concentration, and assays were replicated 4 times (total of 60 larvae/treatment). For each diet treatment, 9-d larval instar and weight, pupal weights, times to pupation, and larval mortality were recorded.
as §1

[6] = Spodoptera exigua, feed or water, 168 h

CCCCC/C=C\C/C=C\CCCCCCCC(=O)CC(O)COC(C)=O (single isomer, unassigned) [persin, 1-acetoxy-2-hydroxy-4-oxo-heneicosa-(12Z,15Z)-diene]
concentration at which growth inhibited (Bombyx mori L. larvae): 200 µg/g
antifungal activity [1]: antifungal activity

C=CCCCCCCCCCCCC(O)CC(O)CO (stereo not shown) [1,2,4-trihydroxy-n-heptadec-16-ene]
fungicidal / antifungal activity [2]: antifungal activity

C#CCCCCCCCCCCCC(O)CC(O)CO (stereo not shown) [1,2,4-trihydroxyheptadec-16-yne]
fungicidal / antifungal activity [2]: antifungal activity

C=CCCCCCCCCCCCC(O)CC(O)COC(C)=O (stereo not shown) [1-acetoxy-2,4-dihydroxy-n-heptadec-16-ene]
fungicidal / antifungal activity [2]: active as a fungicide

C#CCCCCCCCCCCCC(O)CC(O)COC(C)=O (stereo not shown) [1-acetoxy-2,4-dihydroxyheptadec-16-yne]
fungicidal / antifungal activity [2]: antifungal activity

CCCCCCCCCCCCC/C=C/c1ccco1 [2-(1E-pentadecenyl)furan]
mortality at 3500 µg/g (S. exigua larvae [3]; Spodoptera exigua, feed or water, 3,500 μg/g): 12.5%
concentration at which S. exigua growth is inhibited / compound active (S. exigua larvae [3]; lowest active concentration, in diet): ≥ 3,500 μg/g
reduction of larval growth compared to controls (S. exigua larvae [4]): 57.3%

CCCCCCCCCCCCCCCCc1ccco1 [2-(hexadecyl)furan]
effect on 9-day larval weight (FIG. 5B) (S. exigua larvae [5]; in words): comparable to the best compound described above, namely compound (1)

CCCCCCCCCCCCCCCCCCc1ccco1 [2-(octadecyl)furan]
effect on 9-day larval weight (FIG. 5B) (S. exigua larvae [5]; in words): comparable to the best compound described above, namely compound (1)

CCCCCCCCCCCCCCc1ccco1 [2-(tetradecyl)furan]
effect on mortality (FIG. 5A) (S. exigua larvae [5]; 9 d, in words): had the lowest activity
effect on 9-day larval weight (FIG. 5B) (S. exigua larvae [5]; in words): significantly reducing larval weight compared to the control
mortality at 5 µmol/g (S. exigua larvae [5]; Spodoptera exigua, feed or water, 216 h, 9 d, read-out: mortality of S. exigua larvae (FIG. 5A)): < 50%

C=CCCCCCCCCCCCc1ccco1 [2-(trideca-12-enyl)furan]
growth inhibitory activity (Bacillus subtilis): growth inhibitory activity
growth inhibitory activity (Staphylococcus aureus): growth inhibitory activity

CCCCCCCC/C=C\CCCCCCCC(=O)OCC(COC(=O)CCCCCCC/C=C\CCCCCCCC)OC(=O)CCCCCCC/C=C\CCCCCCCC [Triolein (8), triolein]
EC (effective concentration; weight reduction vs control) (S. exigua larvae [3]; 7000 μg/g): 65.43%
GI (growth index) (S. exigua larvae [3]; 7000 μg/g): 0.64
7-d Instar (S. exigua larvae [3]; 7000 μg/g): 2.35 ± 0.08
7-d Larval Weight (S. exigua larvae [3]; 7000 μg/g): 10.84 ± 1.42 mg
EC (effective concentration; weight reduction vs control) (S. exigua larvae [3]; 8000 μg/g): 43.64%
GI (growth index) (S. exigua larvae [3]; 8000 μg/g): 0.67
7-d Instar (S. exigua larvae [3]; 8000 μg/g): 2.70 ± 0.10
7-d Larval Weight (S. exigua larvae [3]; 8000 μg/g): 17.67 ± 2.05 mg
EC (effective concentration; weight reduction vs control) (S. exigua larvae [3]; 9000 μg/g): 84.44%
GI (growth index) (S. exigua larvae [3]; 9000 μg/g): 0.39
7-d Instar (S. exigua larvae [3]; 9000 μg/g): 1.91 ± 0.08
7-d Larval Weight (S. exigua larvae [3]; 9000 μg/g): 4.88 ± 0.65 mg
EC (effective concentration; weight reduction vs control) (S. exigua larvae [3]; 10000 μg/g): 81.52%
GI (growth index) (S. exigua larvae [3]; 10000 μg/g): 0.37
7-d Instar (S. exigua larvae [3]; 10000 μg/g): 1.87 ± 0.10
7-d Larval Weight (S. exigua larvae [3]; 10000 μg/g): 5.79 ± 0.96 mg
EC (effective concentration; weight reduction vs control) (S. exigua larvae [3]; 11000 μg/g): 71.85%
GI (growth index) (S. exigua larvae [3]; 11000 μg/g): 0.28
7-d Instar (S. exigua larvae [3]; 11000 μg/g): 1.95 ± 0.13
7-d Larval Weight (S. exigua larvae [3]; 11000 μg/g): 8.82 ± 2.22 mg
mortality at 7000 µg/g (S. exigua larvae [3]; [6]): 18.8%
mortality at 8000 µg/g (S. exigua larvae [3]; [6]): 26%
mortality at 9000 µg/g (S. exigua larvae [3]; [6]): 40.6%
mortality at 10000 µg/g (S. exigua larvae [3]; [6]): 42.7%
mortality at 11000 µg/g (S. exigua larvae [3]; [6]): 59.4%
LC50 (95% FL) (S. exigua larvae [3]; in diet): 10364 µg/g
level in artificial diet at which toxicity is exhibited (S. exigua larvae [3]; in vivo): about 1%
inhibition of larval growth (S. exigua larvae [3]; in words): significantly inhibited larval growth at relatively high concentrations
Relative Growth Index (RGI) vs log concentration regression (FIG. 4) (S. exigua larvae [3]; log (μg/g)): y=7.68-1.83*log(x), r^2 =0.86
concentration significantly reducing larval weight and development (S. exigua larvae [3]; lowest concentration, in diet): ≥ 7000 µg/g
Survival to pupation (S. exigua; in vivo): 83.3%
Weight, 9-d larvae (S. exigua; mean ± spread): 111.8 ± 10.3 mg
Weight, Pupae (S. exigua; mean ± spread): 116.4 ± 3.7 mg
Developmental times (S. exigua; neonate-pupa, in d (unit assumed)): 15.3 ± 0.4
Mortality (%) using LC25 (S. exigua; single substance, at estimated LC25): 16.7%
reduction of 9-d larval weight (FIG. 6B) (neonate S. exigua; 2,000 μg g^-1 or higher): more than 35%
comparative toxic and inhibitory effect (neonate S. exigua; in words): inhibitory at concentrations much higher than either of the avocadofurans tested in this assay
effect on larval mortality (FIG. 9) (neonate S. exigua; in words): increases larval mortality
effect on pupal weight (FIG. 7) (neonate S. exigua; in words): no effect on larval developmental time and pupal weight
larval developmental time from neonate to pupa (FIG. 8) (neonate S. exigua; in words): not significantly prolonged; also recorded: no effect on larval developmental time
Relative Growth Index (RGI) (FIG. 10) (neonate S. exigua; in words, increasing concentrations): decreased with increasing concentrations
concentration significantly reducing 9-d weight (FIG. 6B) (neonate S. exigua; lowest concentration vs controls): ≥ 2,000 μg g^-1
LC25 (95% FL) (neonate S. exigua; triolein, larval stage): 1,900(1,304-2,339) μg g^-1 of diet
LC50 (95% FL) (neonate S. exigua; triolein, larval stage, listed as Triolein): 3,631(2,979-5,203) μg g^-1
LC50 (95% FL) (neonate S. exigua; triolein, larval stage, listed as triolein): 3,631 μg g^-1
